How the values were obtained:
[1] = tested on: influenza vaccine strains; assay: Clinical study in elderly volunteers: response to influenza vaccination after 6 weeks of mTOR inhibitor dosing; format: in vivo, human; details: 4 weeks after vaccination, 2 week drug-free break
Procedure: In a clinical study elderly volunteers were treated for 6 weeks daily with one of four mTOR inhibitor dosing regimens: 0.5 mg/day RAD001, 0.1 mg/day RAD001, 10 mg/day BEZ235 or 0.1 mg/day RAD001+10 mg/day BEZ235.
After being dosed for 6 weeks, the elderly volunteers were given a 2 week drug-free break and then received influenza vaccination. […] All dosing regimens were relatively well tolerated. […] However the majority of these adverse events were of mild severity, transient and resolved despite continued dosing of mTOR inhibitors.

mTOR = mTOR (Homo sapiens, UniProt P42345); details: low concentration; cited from earlier work
PI3K/mTOR = details: relatively higher concentrations; cited from earlier work

Structure (SMILES)	vaccine strains with GMT ratio as compared to placebo >1.2 ([1]; RAD001 0.1 mg/day monotherapy for 6 weeks)	vaccine strains with GMT ratio as compared to placebo >1.2 ([1]; RAD001 0.5 mg/day monotherapy for 6 weeks)	vaccine strains with GMT ratio as compared to placebo >1.2 ([1]; BEZ235 10 mg/day monotherapy for 6 weeks)	concentration at which mTOR inhibition predominates (mTOR)	concentration at which dual PI3K/mTOR inhibition occurs (PI3K/mTOR)
CO[C@H]1C[C@@H]2CC[C@@H](C)[C@@](O)(O2)C(=O)C(=O)N2CCCC[C@H]2C(=O)O[C@H]([C@H](C)C[C@@H]2CC[C@@H](OCCO)[C@H](OC)C2)CC(=O)[C@H](C)/C=C(\C)[C@@H](O)[C@@H](OC)C(=O)[C@H](C)C[C@H](C)/C=C/C=C/C=C/1C [RAD001, (1R,9S,12S,15R,16E,18R,19R,21R,23S,24E,26E,28E,30S,32S,35R)-1,18-dihydroxy-12-{(1R)-2-[(1S,3R,4R)-4-(2-hydroxyethoxy)-3-methoxycyclohexyl]-1-methylethyl}-19,30-dimethoxy-15,17,21,23,29,35-hexamethyl-11,36-dioxa-4-aza-tricyclo[30.3.1.04,9]hexatriaconta-16,24,26,28-tetraene-2,3,10,14,20-pentaone]	⅓	⅓	–	–	–
Cn1c(=O)n(-c2ccc(C(C)(C)C#N)cc2)c2c3cc(-c4cnc5ccccc5c4)ccc3ncc21 [BEZ235, 2-methyl-2-[4-(3-methyl-2-oxo-8-quinolin-3-yl-2,3-dihydro-imidazo[4,5-c]quinolin-1-yl)-phenyl]-propionitrile]	–	–	0/3	less than 100 nmol/L	approximately 500 nmol/L

From patent US10576076B2 (priority 2015, dated 2020)
